pIC50: −log10 of the molar value.

In assay [1] the target is PARP-1 enzyme (Homo sapiens (Human), UniProt P09874). Put plainly: PARP-1 enzyme activity test. The class given is biochemical. On the procedure:
PARP-1 chemical […] detection kit was purchased from BPS Bioscience. The histone solution in the kit was diluted 5× with 1×PBS, and 25 μL of the diluted histone solution was added to a microwell plate and incubated overnight at 4° C. After the incubation, the plate was washed three times with PBST (0.05% Tween-20). 100 μL of the blocking solution was added to the microwell plate and incubated at 25° C. for 90 minutes. After the incubation, the plate was washed three times with PBST. 2.5 μL of compounds at different concentrations diluted in test buffer and 12.5 μL of substrate mixed solution (1.25 μL 10×PARP test buffer; 1.25 μL 10×PARP test mixed solution; 2.5 μL Activated DNA, 7.5 μL double-distilled water) were added to the microwell plate. The PARP-1 enzyme was diluted to 2 ng/μL, 10 μL of the diluent was added to the microwell plate, and the reaction system was incubated at 25° C. for 60 minutes.
After the incubation, the plate was washed three times with PBST. Streptavidin-HRP was diluted 50× with a blocking solution, and 25 μL of the diluent was added to the microwell plate and incubated at 25° C. for 30 minutes. After the incubation, the plate was washed three times with PBST. ELISA ECL substrate A and substrate B were mixed at a ratio of 1:1 (v/v), 50 μL of the mixture was added to the microwell plate, and the chemiluminescence value was read.
The inhibition rate was calculated according to formula 1, where RLUsample was the readout of the compound well, RLUmax was the readout of the solvent control well, and RLUmin was the readout of the control well without the PARP-1 enzyme. Curve fitting was performed by four parameters (log(inhibitor) vs. response—Variable slope) using GraphPad Prism software, and the IC50 value was calculated.

The subject of assay [2] is MDA-MB-436 cells. Put plainly: MDA-MB-436 cell activity test. The class given is cell-based. The settings on record: Homo sapiens; for pIC50: MDA-MB-436, 168 h, 7 days incubation, CellTiter-Glo; for inhibition at 10 µM: MDA-MB-436 cells, read-out: Max inh. % 10 μM. The procedure:
Breast tumor cells MDA-MB-436 were purchased from ATCC, the culture medium was Leibovitz's L-15+10% FBS, and the cells were cultured in a CO2-free incubator at 37° C. On day 1, the cells in the exponential growth phase were collected, and the cell suspension was adjusted to 4000 cells/135 μL with the culture medium. 135 μL of the cell suspension was added to each well of a 96-well cell culture plate and incubated overnight. On day 2, compounds at different concentrations were added, and the plate was placed in the incubator and incubated for 7 days. After the incubation was completed, according to operation instructions for a CellTiter-Glo kit (Promega, G7573), 75 μL of CTG solution, which was already pre-melted and equilibrated to room temperature, was added to each well, and the mixture was uniformly mixed for 2 min using a microplate shaker. The plate was placed at room temperature for 10 min, and then […] were measured using an Envision2104 plate reader (PerkinElmer). The inhibition rate was calculated using formula (1), where RLUcompound was the readout of the drug treated group, RLUcontrol was the average value of the vehicle control group, and RLUblank was the average value of the cell-free well. The IC50 value was calculated using GraphPad Prism software.
On the technique in general: ATP-based viability assays read luminescence as a measure of living cells.

Chain of PARP-1 enzyme (P09874 whole entry): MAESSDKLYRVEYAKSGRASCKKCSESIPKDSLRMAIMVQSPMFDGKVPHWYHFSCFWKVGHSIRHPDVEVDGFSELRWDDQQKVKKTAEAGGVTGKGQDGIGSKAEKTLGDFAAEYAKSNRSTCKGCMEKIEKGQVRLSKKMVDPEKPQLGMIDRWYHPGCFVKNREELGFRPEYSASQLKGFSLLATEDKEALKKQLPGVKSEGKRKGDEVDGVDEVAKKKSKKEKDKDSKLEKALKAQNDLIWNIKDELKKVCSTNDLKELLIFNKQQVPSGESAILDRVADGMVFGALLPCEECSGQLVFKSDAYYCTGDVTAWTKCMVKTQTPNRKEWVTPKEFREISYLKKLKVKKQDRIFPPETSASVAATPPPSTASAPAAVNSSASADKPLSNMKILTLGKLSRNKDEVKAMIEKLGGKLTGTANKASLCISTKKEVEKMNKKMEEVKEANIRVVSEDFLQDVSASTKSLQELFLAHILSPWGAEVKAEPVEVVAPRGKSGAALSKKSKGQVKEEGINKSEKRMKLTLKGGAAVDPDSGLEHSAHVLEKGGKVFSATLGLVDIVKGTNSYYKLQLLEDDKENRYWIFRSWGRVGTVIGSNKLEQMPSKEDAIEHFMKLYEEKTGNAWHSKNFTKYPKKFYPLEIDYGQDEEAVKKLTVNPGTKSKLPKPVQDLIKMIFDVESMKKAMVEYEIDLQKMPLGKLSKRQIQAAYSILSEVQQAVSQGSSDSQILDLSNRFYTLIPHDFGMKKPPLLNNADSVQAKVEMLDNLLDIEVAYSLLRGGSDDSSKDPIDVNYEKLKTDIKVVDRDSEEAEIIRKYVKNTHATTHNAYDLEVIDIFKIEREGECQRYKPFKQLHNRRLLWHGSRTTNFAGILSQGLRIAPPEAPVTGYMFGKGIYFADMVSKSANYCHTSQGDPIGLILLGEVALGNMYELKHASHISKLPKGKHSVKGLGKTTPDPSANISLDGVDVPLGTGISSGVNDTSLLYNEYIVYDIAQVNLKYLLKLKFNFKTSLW

As usually defined, the pIC50 is −log10 of the IC50, conventionally taken in molar units. For `CCc1cc2ncc(CN3CC4CN(c5ccc(C(=O)NC)nc5)CC4C3)cc2[nH]c1=O` (stereo not drawn) [Compound 1, 5-(5-((7-ethyl-6-oxo-5,6-dihydro-1,5-naphthyridin-3-yl)methyl)hexahydropyrrolo [3,4-c]pyrrol-2(1H)-yl)-N-methylpicolinamide], in assay [1], the pIC50 was 9.10.

For the compound `CCc1cc2ncc(CN3C4CCC3CN(c3ccc(C(=O)NC)nc3)C4)cc2[nH]c1=O` [Compound 3, 5-(8-((7-ethyl-6-oxo-5,6-dihydro-1,5-naphthyridin-3-yl)methyl)-3,8-diazabicyclo[3.2.1]octan-3-yl)-N-methylpicolinamide], the pIC50 in assay [1] was 8.80. Still for that read-out and setting: for `CCc1cc2ncc(CN3CC(Nc4ccc(C(=O)NC)nc4)C3)cc2[nH]c1=O` [Compound 6, 5-((1-((7-ethyl-6-oxo-5,6-dihydro-1,5-naphthyridin-3-yl)methyl)azetidin-3-yl)amino)-N-methylpicolinamide] the value was 9.29. Turning to `CCc1cc2ncc(CN3CC4(C3)CN(c3ccc(C(=O)NC)nc3)C4)cc2[nH]c1=O` [Compound 8, 5-(6-((7-ethyl-6-oxo-5,6-dihydro-1,5-naphthyridin-3-yl)methyl)-2,6-diazaspiro[3.3]heptan-2-yl)-N-methylpicolinamide], the pIC50 in assay [1] is 9.11. Same read-out and setting: for `CCc1cc2ncc(CN3CC[C@@H](Nc4ccc(C(=O)NC)nc4)C3)cc2[nH]c1=O` [Compound 19, (R)-5-((1-((7-ethyl-6-oxo-5,6-dihydro-1,5-naphthyridin-3-yl)methyl)pyrrolidin-3-yl)amino)-N-methylpicolinamide] the value was 9.44. In the case of `CCc1cc2ncc(CN3CC=C(c4ccc(C(=O)Nc5cnn(C)c5)nc4)CC3)cc2[nH]c1=O` [Compound 20, 1′-((7-ethyl-6-oxo-5,6-dihydro-1,5-naphthyridin-3-yl)methyl)-N-(1-methyl-1H-pyrazol-4-yl)-1′,2′,3′,6′-tetrahydro-[3,4′-bipyridine]-6-carboxamide], the pIC50 in assay [1] was 9.59. In addition, in assay [2], the pIC50 is 9.15 and the inhibition at 10 µM worked out at 91.8%.

The compound `CCc1cc2ncc(CN3CC=C(c4ccc(NC(=O)C5CC5)nc4)CC3)cc2[nH]c1=O` [Compound 22, N-(1′-((7-ethyl-6-oxo-5,6-dihydro-1,5-naphthyridin-3-yl)methyl)-1′,2′,3′,6′-tetrahydro-[3,4′-bipyridin]-6-yl)cyclopropanecarboxamide] gave a pIC50 in assay [1] of 9.51. Besides, in assay [2], the pIC50 was 8.66 and the inhibition at 10 µM came to 89.1%. Compound `CCc1cc2ncc(CN3CC=C(c4ccc(C(=O)NC5CC5)nc4)CC3)cc2[nH]c1=O` [Compound 25, N-cyclopropyl-1′-((7-ethyl-6-oxo-5,6-dihydro-1,5-naphthyridin-3-yl)methyl)-1′,2′,3′,6′-tetrahydro-[3,4′-bipyridine]-6-carboxamide] had a pIC50 in assay [1] of 9.44. In the case of `CCc1cc2ncc(CN3CC=C(c4ccc(C(=O)N[C@@H]5C[C@@H]5F)nc4)CC3)cc2[nH]c1=O` [Compound 26, 1′-((7-ethyl-6-oxo-5,6-dihydro-1,5-naphthyridin-3-yl)methyl)-N-((1R,2S)-2-fluorocyclopropyl)-1′,2′,3′,6′-tetrahydro-[3,4′-bipyridine]-6-carboxamide], the negative-log IC50 (pIC50) in assay [1] is 9.39. In assay [2], the pIC50 is 9.00 and the inhibition at 10 µM worked out at 90.9%.

The compound `CCc1cc2ncc(CN3CC=C(c4cn5cc(C)nc5cn4)CC3)cc2[nH]c1=O` [Compound 27, 3-ethyl-7-((4-(2-methylimidazo[1,2-a]pyrazin-6-yl)-3,6-dihydropyridin-1(2H)-yl)methyl)-1,5-naphthyridin-2(1H)-one] gave a pIC50 in assay [1] of 9.39.

`CCc1cc2ncc(C=C3CCN(c4ccc(C(=O)NC)nc4)CC3)cc2[nH]c1=O` [Compound 28, 5-(4-((7-ethyl-6-oxo-5,6-dihydro-1,5-naphthyridin-3-yl)methylene)piperidin-1-yl)-N-methylpicolinamide] gave a pIC50 in assay [1] of 9.48. The same measure, in the same setting: for `CCc1cc2ncc(CC3CCN(c4ccc(C(=O)NC)nc4)CC3)cc2[nH]c1=O` [Compound 29, 5-(4-((7-ethyl-6-oxo-5,6-dihydro-1,5-naphthyridin-3-yl)methyl)piperidin-1-yl)-N-methylpicolinamide] the value was 9.02. For `CCc1cc2ncc(CN3CC=C(c4ccc(NC(=O)c5cnn(C)c5)nc4)CC3)cc2[nH]c1=O` [Compound 30, N-(1′-((7-ethyl-6-oxo-5,6-dihydro-1,5-naphthyridin-3-yl)methyl)-1′,2′,3′,6′-tetrahydro-[3,4′-bipyridin]-6-yl)-1-methyl-1H-pyrazole-4-carboxamide], the pIC50 in assay [1] was 9.59. For the same compound, in assay [2], the pIC50 was 9.15 and the inhibition at 10 µM worked out at 91.8%. In the same order, the values of `CCc1cc2ncc(C=C3CCN(c4ccc(C(=O)Nc5cnn(C)c5)nc4)CC3)cc2[nH]c1=O` [Compound 32, 5-(4-((7-ethyl-6-oxo-5,6-dihydro-1,5-naphthyridin-3-yl)methylene)piperidin-1-yl)-N-(1-methyl-1H-pyrazol-4-yl)picolinamide] are 9.72, 7.86 and 99.1%. The like results for `CCc1cc2ncc(CN3CC=C(c4cn5cc(C(F)(F)F)nc5cn4)CC3)cc2[nH]c1=O` [Compound 33, 3-ethyl-7-((4-(2-(trifluoromethyl)imidazo[1,2-a]pyrazin-6-yl)-3,6-dihydropyridin-1(2H)-yl)methyl)-1,5-naphthyridin-2(1H)-one] were, in that order, 9.15, 8.72 and 77.6%.

The values are drawn from patent publication US20250034168A1, “NITROGEN-CONTAINING HETEROCYCLIC DERIVATIVE PARP INHIBITOR AND USE THEREOF” (XIZANG HAISCO PHARMACEUTICAL CO., LTD., priority 2021, published 2025).
